Assay results published in PubChem BioAssay (NCI).
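Briefly, cells in 96-well plates were exposed to five compound concentrations for 48 h, and endpoints were estimated by linear interpolation. At the GI50, growth is halved. At the TGI there is no net growth.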

Legend:
Test in all cases: NCI anticancer screen, dose series, 48 h
SK-MEL-2 melanoma = tested on: SK-MEL-2 melanoma
RPMI-8226 leukemia = tested on: RPMI-8226 leukemia
COLO 205 colon = tested on: COLO 205 colon
OVCAR-5 ovarian = tested on: OVCAR-5 ovarian
MCF7 breast = tested on: MCF7 breast
LOX IMVI melanoma = tested on: LOX IMVI melanoma
IGROV1 ovarian = tested on: IGROV1 ovarian
HCT-116 colon = tested on: HCT-116 colon
T-47D breast = tested on: T-47D breast
NCI-H226 lung = tested on: NCI-H226 lung

Work on `CCS(=O)(=O)c1ccc(OC)c(Nc2nccc(N(C)c3ccc4c(C)[nH]nc4c3)n2)c1` yielded a GI50 (SK-MEL-2 melanoma) of 5.45 µM, a TGI (SK-MEL-2 melanoma) of 14.9 µM and a GI50 (RPMI-8226 leukemia) of 8.35 µM. The TGI (RPMI-8226 leukemia) was over 25 µM, the GI50 (COLO 205 colon) was 11 µM and the TGI (COLO 205 colon) was over 25 µM. The GI50 (OVCAR-5 ovarian) was 5.75 µM, the TGI (OVCAR-5 ovarian) was over 22.7 µM and the GI50 (MCF7 breast) was 9.16 µM. For the same molecule, the TGI (MCF7 breast) was over 25 µM, the GI50 (LOX IMVI melanoma) was 4.29 µM and the TGI (LOX IMVI melanoma) was 12 µM. The GI50 (IGROV1 ovarian) was 3.97 µM, the TGI (IGROV1 ovarian) was 16.5 µM and the GI50 (HCT-116 colon) was 8.69 µM. The TGI (HCT-116 colon) was over 25 µM, the GI50 (T-47D breast) was 4.77 µM and the TGI (T-47D breast) was 21.9 µM. The GI50 (NCI-H226 lung) was 1.85 µM and the TGI (NCI-H226 lung) was over 21.1 µM.

`CCOc1cc2ncc(C#N)c(Nc3ccc(F)c(Cl)c3)c2cc1NC(=O)/C=C/CN(C)C` showed a GI50 (SK-MEL-2 melanoma) of 0.349 µM, a TGI (SK-MEL-2 melanoma) of over 3.21 µM and a GI50 (RPMI-8226 leukemia) of 1.04 µM. It also gave a TGI (RPMI-8226 leukemia) of 3.33 µM, a GI50 (COLO 205 colon) of 1.33 µM and a TGI (COLO 205 colon) of 2.83 µM. For the same molecule, the GI50 (OVCAR-5 ovarian) was 0.344 µM, the TGI (OVCAR-5 ovarian) was over 5.93 µM and the GI50 (MCF7 breast) was 1.23 µM. The TGI (MCF7 breast) was 5.56 µM, the GI50 (LOX IMVI melanoma) was 0.761 µM and the TGI (LOX IMVI melanoma) was 2.14 µM. For the same molecule, the GI50 (IGROV1 ovarian) was 0.0269 µM, the TGI (IGROV1 ovarian) was 0.466 µM and the GI50 (HCT-116 colon) was 0.333 µM. For the same molecule, the TGI (HCT-116 colon) was 1.83 µM, the GI50 (T-47D breast) was 0.108 µM and the TGI (T-47D breast) was over 3.37 µM. For the same molecule, the GI50 (NCI-H226 lung) was 0.584 µM and the TGI (NCI-H226 lung) was over 5.01 µM.

`Cc1nn2c(/C=C3/C(=O)Nc4ccc(Cl)cc43)c(-c3ccccc3)nc2s1` gave a GI50 (SK-MEL-2 melanoma) of 4.04 µM, a TGI (SK-MEL-2 melanoma) of 18.4 µM and a GI50 (RPMI-8226 leukemia) of 2.94 µM. It also gave a TGI (RPMI-8226 leukemia) of 22.1 µM, a GI50 (COLO 205 colon) of 3.9 µM and a TGI (COLO 205 colon) of 13.5 µM. For the same molecule, the GI50 (OVCAR-5 ovarian) was 8.38 µM, the TGI (OVCAR-5 ovarian) was 25.9 µM and the GI50 (MCF7 breast) was 3.85 µM. The TGI (MCF7 breast) was 25 µM, the GI50 (LOX IMVI melanoma) was 3.52 µM and the TGI (LOX IMVI melanoma) was 14.8 µM. For the same molecule, the GI50 (IGROV1 ovarian) was 1.51 µM, the TGI (IGROV1 ovarian) was 10.2 µM and the GI50 (HCT-116 colon) was 1.9 µM. It also gave a TGI (HCT-116 colon) of 4.61 µM, a GI50 (T-47D breast) of 1.71 µM and a TGI (T-47D breast) of 11.5 µM. The GI50 (NCI-H226 lung) was 1.51 µM and the TGI (NCI-H226 lung) was 4.6 µM.

Work on `NC1CCC[C@@H](O)[C@H]1O` (stereo not given in full) yielded a TGI (SK-MEL-2 melanoma) of over 100 µM, a TGI (RPMI-8226 leukemia) of over 100 µM and a TGI (COLO 205 colon) of over 100 µM. For the same molecule, the TGI (OVCAR-5 ovarian) was over 100 µM, the TGI (MCF7 breast) was over 100 µM and the TGI (LOX IMVI melanoma) was over 100 µM. The TGI (IGROV1 ovarian) was over 100 µM, the TGI (HCT-116 colon) was over 100 µM and the TGI (T-47D breast) was over 100 µM. For the same molecule, the TGI (NCI-H226 lung) was over 100 µM.

For `NC(=O)C1=C(c2ccccc2)c2ccccc2C1=O`, the TGI (SK-MEL-2 melanoma) was 39.7 µM, the TGI (RPMI-8226 leukemia) was 72.4 µM and the TGI (COLO 205 colon) was 38.5 µM. It also gave a TGI (OVCAR-5 ovarian) of 53.9 µM, a TGI (MCF7 breast) of 32.9 µM and a TGI (LOX IMVI melanoma) of 21.4 µM. The TGI (IGROV1 ovarian) was 30.6 µM, the TGI (HCT-116 colon) was 34.9 µM and the TGI (T-47D breast) was 40.9 µM. The TGI (NCI-H226 lung) was 37.5 µM.

In the case of `O=C(CNC(=O)c1cccc2ccccc12)Nc1ccccc1Oc1ccccc1`, the GI50 (SK-MEL-2 melanoma) was 0.272 µM, the TGI (SK-MEL-2 melanoma) was over 10 µM and the GI50 (RPMI-8226 leukemia) was 0.318 µM. For the same molecule, the TGI (RPMI-8226 leukemia) was over 10 µM, the GI50 (COLO 205 colon) was 0.308 µM and the TGI (COLO 205 colon) was 1.14 µM. For the same molecule, the GI50 (OVCAR-5 ovarian) was 0.521 µM, the TGI (OVCAR-5 ovarian) was over 10 µM and the GI50 (MCF7 breast) was 0.306 µM. It also gave a TGI (MCF7 breast) of over 10 µM, a GI50 (LOX IMVI melanoma) of 0.307 µM and a TGI (LOX IMVI melanoma) of over 10 µM. It also gave a GI50 (IGROV1 ovarian) of 0.91 µM, a TGI (IGROV1 ovarian) of over 10 µM and a GI50 (HCT-116 colon) of 0.322 µM. It also gave a TGI (HCT-116 colon) of over 10 µM, a GI50 (T-47D breast) of 0.542 µM and a TGI (T-47D breast) of over 10 µM. For the same molecule, the GI50 (NCI-H226 lung) was 2.19 µM and the TGI (NCI-H226 lung) was over 10 µM.

With `C=C1C(=O)O[C@@H]2C[C@@H](C)[C@@H]3[C@@H](OC4OC(COC(C)=O)C(O)C(O)C4O)CC(=O)[C@@]3(C)C[C@H]12` (stereo not given in full) the TGI (SK-MEL-2 melanoma) was 20.7 µM, the TGI (RPMI-8226 leukemia) was 8.53 µM and the TGI (COLO 205 colon) was 1.88 µM. It also gave a TGI (OVCAR-5 ovarian) of 8.07 µM, a TGI (MCF7 breast) of 2.19 µM and a TGI (LOX IMVI melanoma) of 1.78 µM. It also gave a TGI (IGROV1 ovarian) of 6.2 µM, a TGI (HCT-116 colon) of 1.88 µM and a TGI (T-47D breast) of 8.89 µM. The TGI (NCI-H226 lung) was 26.1 µM.

`COc1ccc(C(=O)c2cc(OC)c(OC)c(OC)c2)cc1O` showed a GI50 (SK-MEL-2 melanoma) of 0.238 µM, a TGI (SK-MEL-2 melanoma) of over 100 µM and a GI50 (RPMI-8226 leukemia) of 0.0342 µM. It also gave a TGI (RPMI-8226 leukemia) of over 64.9 µM, a GI50 (COLO 205 colon) of 1.36 µM and a TGI (COLO 205 colon) of 13.3 µM. For the same molecule, the GI50 (OVCAR-5 ovarian) was 1.6 µM, the TGI (OVCAR-5 ovarian) was over 100 µM and the GI50 (MCF7 breast) was 0.0327 µM. For the same molecule, the TGI (MCF7 breast) was over 100 µM, the GI50 (LOX IMVI melanoma) was 0.0114 µM and the TGI (LOX IMVI melanoma) was over 100 µM. The GI50 (IGROV1 ovarian) was 0.278 µM, the TGI (IGROV1 ovarian) was over 100 µM and the GI50 (HCT-116 colon) was 0.0376 µM. It also gave a TGI (HCT-116 colon) of over 100 µM, a GI50 (T-47D breast) of 26 µM and a TGI (T-47D breast) of over 100 µM. For the same molecule, the GI50 (NCI-H226 lung) was 4.76 µM and the TGI (NCI-H226 lung) was over 100 µM.
